Experimental data from ChEMBL document CHEMBL5608109, “Hepatotoxicity screening of Donated Chemical Probes” (2024).
Counter-ions that a name gives are not always drawn. Where a SMILES comes first, the peptide text is derived from it. [ ]: non-standard residue; d: D form. Arg(Me) = CNC(=N)NCCC[C@H](N)C(=O)O; d4Pal = N[C@H](Cc1ccncc1)C(=O)O; azaGly = NNC(=O)O

Test system: Hepatocyte spheroids
Experiment: This assay model using primary human hepatocyte (PHH) spheroids, which are cultured in Williams E medium. After spheroid formation, cells are exposed to compounds in an FBS-free culture medium. […] Imaging is performed on an Opera Phenix High-Content Screening System, allowing quantification of proliferation as a readout for evaluating the effects of chemical probes on hepatocyte regeneration.
Assay type: functional
Conditions: read-out: Cell Viability; for viability at 0.1 µM: Concentration 0.1 uM; for viability at 1 µM: Concentration 1 uM; for viability at 10 µM: Concentration 10 uM; for viability at 20 µM: Concentration 20 uM

| Compound | viability at 0.1 µM | viability at 1 µM | viability at 10 µM | viability at 20 µM | viability at 2 µM (Concentration 2 uM) |
| --- | --- | --- | --- | --- | --- |
| O=C(NCc1ncc(C(F)(F)F)cc1Cl)c1ccc2c(c1)C1(CCS(=O)(=O)CC1)[C@H](C1CC1)N2S(=O)(=O)c1ccc(F)cc1 [BAY-784] | 103% (non-toxic) | 107% (non-toxic) |  |  |  |
| Cc1ccccc1Oc1cc(-n2c(=O)cc(C(F)(F)F)[nH]c2=O)c2ccccc2c1Cl [BAY-069] |  | 82.5% (non-toxic) | 62.5% (toxic) |  |  |
| Cn1nc(C(F)(F)F)cc1-c1cnc(N2CCc3cc(S(=O)(=O)Nc4c(F)cc(Cl)cc4F)cc(N4CCCC4=O)c32)nc1 [TP-020] |  | 121% (non-toxic) | 120% (non-toxic) |  |  |
| CC1CCN(c2ccnc(NCc3cn(C)cn3)n2)CC1 [TP-040] |  | 127% (non-toxic) | 133% (non-toxic) |  |  |
| CCOCCn1cc(C(=O)Nc2ccc(-n3nc(-c4cccnc4)cc3C(F)(F)F)cn2)ccc1=O [BI 1935] |  | 100% (non-toxic) | 34.7% (toxic) |  |  |
| COCCc1ccc(-c2c(C)nc3c(N4CCOCC4)ccnn23)cn1 [JNJ-42396302] |  | 158% (non-toxic) | 160% (non-toxic) |  |  |
| CN1CCN(c2cnc3c(C4CCN(C(=O)c5ccc(OC(F)(F)F)cc5N)CC4)ncnc3c2)CC1 [BAY-885] |  | 99.8% (non-toxic) | 98.6% (non-toxic) |  |  |
| CNC(=O)Nc1ccc2c(c1)CC[C@@]21OC(=O)N(CC(=O)N(Cc2ccc(F)cc2)[C@@H](C)C(F)(F)F)C1=O [A-485] | 102% (non-toxic) | 69.1% (toxic) |  |  |  |
| COc1ccc2c(c1)O[C@@H](c1ccc(OC)c(OC)c1)C[C@H]2NC(=O)C1(c2ccc3c(c2)OC(F)(F)O3)CC1 [A-1596586] |  | 104% (non-toxic) | 88.5% (non-toxic) |  |  |
| Cc1cnc(-c2cc(Cl)ccc2F)cc1-n1c(=O)n(CC(N)=O)c2cnccc21 [TP-008] |  | 90% (non-toxic) | 99.1% (non-toxic) |  |  |
| CC[C@H](CC(=O)O)n1c(=O)c2ncccc2n(Cc2cn(C)c3cc(C)cc(C)c23)c1=O [BI-1942] |  | 53.2% (toxic) | 65.2% (toxic) |  |  |
| C[C@H](c1ccc(F)cc1)N(Cc1cccc(C(=O)O)c1)C(=O)c1cnc2ccccc2c1 [PF-05105679] |  | 126% (non-toxic) | 120% (non-toxic) |  |  |
| COCCOc1nc(-c2ccc(Cl)nc2)nc2c1CN(C(=O)c1ncn3ccccc13)CC2 [THPP-1] | 118% (non-toxic) | 116% (non-toxic) |  |  |  |
| Cn1c(C2(NC(=O)c3ccc4c(C5CCCC5)c(-c5ncc(Br)cn5)n(C)c4c3)CCC2)nc2ccc(/C=C/C(=O)O)cc21 [DELEOBUVIR] |  | 135% (non-toxic) | 157% (non-toxic) |  |  |
| C=CC(=O)Nc1ccc2[nH]c(=O)n(C3CCN(Cc4ccc(-c5nc6cc[nH]c(=O)c6cc5-c5ccccc5)cc4)CC3)c2c1 [Borussertib] |  | 48.8% (toxic) | 16% (toxic) |  |  |
| NS(=O)(=O)c1cc(NC(=O)Cc2ccccc2)ccc1Oc1cccc(Cl)c1 [BAY-1797] |  | 111% (non-toxic) | 19.3% (toxic) |  |  |
| O=S(=O)(NC1CCC(c2cc(F)ccc2F)(S(=O)(=O)c2ccc(Cl)cc2)CC1)C(F)(F)F (stereo unspecified) [MRK-560] | 101% (non-toxic) | 76.1% (non-toxic) |  |  |  |
| O=C(N1CCS(=O)(=O)CC1)N1C[C@H](c2ccc(OC(F)(F)F)cc2)C[C@H](c2nc(C3CC3)no2)C1 [BAY-386] |  | 121% (non-toxic) | 111% (non-toxic) |  |  |
| N#CC1(c2ccccn2)CCN(Cc2cc(C(=O)O)c(=O)n3ccccc23)CC1 [MSD-M1PAM] |  | 112% (non-toxic) | 87.1% (non-toxic) |  |  |
| O=C(NCCN1CCOCC1)c1ccc2c(c1)C(=O)c1ccc(Nc3ccc(F)c(NC(=O)c4ccccc4)c3)cc1CC2 [FS-694] |  | 74.8% (non-toxic) | 84.2% (non-toxic) |  |  |
| Cc1c(N2CCCC2)nc2ccc(Br)cc2c1C(=O)NC[C@H](CCC(=O)O)c1ccccc1Cl [BAY-6672] |  | 106% (non-toxic) | 111% (non-toxic) |  |  |
| CCCOc1ccc([C@H]2[C@H](C(=O)O)[C@@H](c3ccc4c(c3)OCO4)CN2CC(=O)Nc2c(CC)cccc2CC)cc1 [A-192621] | 104% (non-toxic) | 110% (non-toxic) |  |  |  |
| CC(=O)Nc1c(C(C)=O)c(=O)n(C)c2nc(-c3ccc(Cl)cc3Cl)c(-c3ccc(Cl)cc3)cc12 [NAPHTHYRIDINONE] |  | 117% (non-toxic) | 121% (non-toxic) |  |  |
| Nc1c(C(=O)NCc2ccc(C(=O)NCCCC3CCCCC3)cc2)cnn1-c1ccccc1 [SR-318] | 81.4% (non-toxic) | 89.8% (non-toxic) |  |  |  |
| COc1ccc2cc(OCC3(C(=O)O)CN(C(=O)c4ccc(F)cc4)C3)ccc2c1 [PF-04418948] | 157% (non-toxic) | 153% (toxic) |  |  |  |
| CC(=O)N1CCC(c2ccc(C(=O)NC(=N)N)cc2C(F)(F)F)CC1 [BI 9627] |  | 78.4% (non-toxic) | 106% (non-toxic) |  |  |

| Compound | viability at 0.1 µM | viability at 1 µM | viability at 10 µM | viability at 20 µM | viability at 2 µM (Concentration 2 uM) |
| --- | --- | --- | --- | --- | --- |
| Cc1c(NC(=O)COc2ccc(Cl)cc2C(=O)c2cc(F)cc(C(F)(F)F)c2)ccc(C(=O)O)c1F [BI 2540] |  | 95.6% (non-toxic) | 93.1% (non-toxic) |  |  |
| COCc1nc2cnc3cc(-c4c(C)noc4C)c(OC[C@H]4CCNC4)cc3c2n1[C@H](C)c1ccccc1 [GSK778] |  | 118% (non-toxic) | 64% (toxic) |  |  |
| O=C(O)c1cc(-c2ccc(C3CCNCC3)cc2)c2ccc(-c3ccc(C(F)(F)F)cc3)cc2c1 |  | 91.3% (non-toxic) | 1.07% (toxic) |  |  |
| CNC(=O)c1cc(C(=O)NC2CC2)cn(Cc2ccccc2)c1=O [GSK620] |  | 117% (non-toxic) | 85.9% (non-toxic) |  |  |
| CS(=O)(=O)N1CCCC(NC(=O)[C@H](CCC2CCCCC2)NC(=O)c2ccc(CNC(=O)c3cnc4ccccn34)cc2)C1 (stereo partly specified) [SR-302] | 134% (non-toxic) | 128% (non-toxic) |  |  |  |
| CC(=O)Nc1ncc(CN2CCC[C@H](Cc3cc(C)nc(C)c3)C2)s1 [JNJ-65355394] |  | 149% (non-toxic) | 142% (non-toxic) |  |  |
| CN(C)C(=O)Cn1cc(-c2nc([C@@](C)(c3ccc(-c4cnc(N)nc4)cc3)C3CC3)no2)cn1 [BI 665915] | 104% (non-toxic) | 84.4% (non-toxic) |  |  |  |
| CC1=CC(C)=[N+]2C1=C(CCCCc1cn(CC(=O)N3CCc4nc(NC(=O)[C@H]5CCN(C#N)C5)sc4C3)nn1)c1c(C)cc(C)n1[B-]2(F)F |  | 104% (non-toxic) | 105% (non-toxic) |  |  |
| NC(=O)c1ccc2nc(-c3ccc(C4(N)CCC4)cc3)c(-c3ccccc3)n2n1 [BAY-1125976] | 94.8% (non-toxic) | 75.2% (non-toxic) |  |  |  |
| CCOc1ccc(S(=O)(=O)Nc2ccc(Cl)cc2C#Cc2cnc(C(=O)O)cc2OC)c2ncccc12 |  | 91.1% (non-toxic) | 17.2% (toxic) |  |  |
| Cc1cc2c(-c3ccco3)cnc(N[C@@H]3CCN(C)C[C@H]3C(=O)NC3CCCCC3)c2[nH]c1=O [GSK789] |  | 52.2% (toxic) | 27.6% (toxic) |  |  |
| O=c1nc(-c2ccccn2)sc2ccccc12 [BTZO-1] |  | 99.7% (non-toxic) | 73.5% (non-toxic) |  |  |
| CC(C)(O)c1cncc(-c2nc3ccc(F)cc3n2C2CC2)c1 [MSD-CYP11B2] |  | 113% (non-toxic) | 96.6% (non-toxic) |  |  |
| Cc1nc(N2CC[C@H](O)C2)ncc1-c1cc(C(F)(F)F)cc2[nH]ncc12 |  | 116% (non-toxic) | 107% (non-toxic) |  |  |
| CNC(=N)NCCC[C@H](NC(=O)[C@H](CC(C)C)NC(=O)NNC(=O)[C@H](Cc1ccccc1)NC(=O)[C@H](CO)NC(=O)[C@H](CC(N)=O)NC(=O)[C@@H](Cc1ccncc1)NC(=O)[C@H](N)Cc1ccc(O)cc1)C(=O)N[C@@H](Cc1ccccc1)C(N)=O [KISS1-305] (H-[dY][d4Pal]NSF[azaGly]L[Arg(Me)]F-NH2) | 107% (non-toxic) | 98.4% (non-toxic) |  |  |  |
| COc1cc(-c2cn([C@H]3CCc4c(F)cccc4N(CC(F)(F)F)C3=O)nn2)ccc1-n1cnc(C)c1 |  | 115% (non-toxic) | 126% (non-toxic) |  |  |
| CNC(=O)c1cc(C(=O)N[C@H]2[C@@H]3COC[C@@H]32)cc2c1O[C@H](CF)[C@H]2c1ccccc1 [GSK973] |  | 103% (non-toxic) | 88.7% (non-toxic) |  |  |
| N#CN1CC[C@H](C(=O)Nc2nc3c(s2)CN(C(=O)CN=[N+]=[N-])CC3)C1 [8RK64] |  | 97.6% (non-toxic) | 70.7% (toxic) |  |  |
| Cc1cc(Nc2nccc(C)n2)cc(-c2cnc([C@@]3(O)CC[C@H](C(=O)O)C(C)(C)C3)s2)c1 [MRL-SYKi] | 98.8% (non-toxic) | 95.5% (non-toxic) |  |  |  |
| C[C@@H]1CN(c2cc(-c3n[nH]c4ccc(OC5(C)CC5)cc34)ncn2)C[C@H](C)O1 [MLi-2] | 79.3% (non-toxic) | 79.7% (non-toxic) |  |  |  |
| Cc1cc(-n2nc(Cc3cc(F)cc(C(F)(F)F)c3)nc2C)ccc1C(N)=O [TP-024] |  | 111% (non-toxic) | 92% (non-toxic) |  |  |
| CN(C)CCCN1c2ccccc2Sc2ccc(Cl)cc21 [CHLORPROMAZINE HYDROCHLORIDE] |  |  |  | 0.683% (toxic) |  |
| CS(=O)(=O)c1cc(C2(NC(=O)c3cncc4c3cnn4-c3ccc(F)cc3)CC2)ccn1 [BI 639667] |  |  |  | 59.6% (toxic) | 60.2% (toxic) |
| CN1C(=O)[C@@H](N2CCc3c(nn(Cc4ccccc4)c3Br)C2=O)COc2ccccc21 [TP-030-2] | 69.5% (toxic) | 56.7% (toxic) |  |  |  |
| CCS(=O)(=O)c1cc2cc(C[C@](O)(CC(C)(C)c3ccc(F)cc3C(N)=O)C(F)(F)F)[nH]c2cn1 [BI 653048] |  | 116% (non-toxic) | 116% (non-toxic) |  |  |
